≈ marks a conversion by molar mass, not a printed value.
Legend:
Type in all cases: cell-based
B. subtilis ATCC 6633 = assay: Antimicrobial activity, minimal inhibitory concentration (agar streak) against B. subtilis ATCC 6633; conditions: Bacillus subtilis, ATCC6633, 10^8 viable cells per ml, heart infusion agar, 37° C. for 20 hours
Protocol: (§1) Now in order to show the utility of the object compounds (I), test data on anti-microbial activity of a representative compound of the present invention are shown below.
(§2) One loopful of an overnight culture of each test strain in Trypticase-soy broth (10^8 viable cells per ml.) was streaked on heart infusion agar (HI-agar) containing graded concentrations of antibiotics, and the minimal inhibitory concentration (MIC) was expressed in terms of μg/ml after incubation at 37° C. for 20 hours.

Ps. aeruginosa 2 = assay: Antimicrobial activity, minimal inhibitory concentration (agar streak) against Ps. aeruginosa 2; conditions: Pseudomonas aeruginosa, 10^8 viable cells per ml, heart infusion agar, 37° C. for 20 hours
Protocol: as §1, §2

S. marcescens 35 = assay: Antimicrobial activity, minimal inhibitory concentration (agar streak) against S. marcescens 35; conditions: Serratia marcescens, 10^8 viable cells per ml, heart infusion agar, 37° C. for 20 hours
Protocol: as §1, §2

MIC (B. subtilis ATCC 6633) [µg/mL]	MIC (Ps. aeruginosa 2) [µg/mL]	MIC (S. marcescens 35) [µg/mL]	Compound
0.78 (≈ 1.59 µM)	3.13 (≈ 6.39 µM)	1.56 (≈ 3.19 µM)	CCO/N=C(\C(=O)NC1C(=O)N2C(C(=O)[O-])=C(C[n+]3ccccc3)CSC12)c1nsc(N)n1 (stereo not drawn) [(1)]
0.39 (≈ 0.774 µM)	12.5 (≈ 24.8 µM)	3.13 (≈ 6.22 µM)	CCCO/N=C(\C(=O)NC1C(=O)N2C(C(=O)[O-])=C(C[n+]3ccccc3)CSC12)c1nsc(N)n1 (stereo not drawn) [(2)]
0.78 (≈ 1.46 µM)	25 (≈ 46.9 µM)	3.13 (≈ 5.88 µM)	CCO/N=C(\C(=O)NC1C(=O)N2C(C(=O)[O-])=C(C[n+]3ccc(C(N)=O)cc3)CSC12)c1nsc(N)n1 (stereo not drawn) [(3)]

From patent US4332800A, “Cephem compounds” (Fujisawa Pharmaceutical Co., Ltd., priority 1979, dated 1982)
